The values that follow come from patent US9862716B2, “TRKA kinase inhibitors, compositions and methods thereof” (Merck Sharp & Dohme Corp., priority 2014, dated 2018).

For this test, the target named is T1, human TrkA receptor (Homo sapiens, UniProt P04629).
T1 construct: host or cells: U2OS cells (PathHunter cell line)
T1 sequence (P04629 33-796): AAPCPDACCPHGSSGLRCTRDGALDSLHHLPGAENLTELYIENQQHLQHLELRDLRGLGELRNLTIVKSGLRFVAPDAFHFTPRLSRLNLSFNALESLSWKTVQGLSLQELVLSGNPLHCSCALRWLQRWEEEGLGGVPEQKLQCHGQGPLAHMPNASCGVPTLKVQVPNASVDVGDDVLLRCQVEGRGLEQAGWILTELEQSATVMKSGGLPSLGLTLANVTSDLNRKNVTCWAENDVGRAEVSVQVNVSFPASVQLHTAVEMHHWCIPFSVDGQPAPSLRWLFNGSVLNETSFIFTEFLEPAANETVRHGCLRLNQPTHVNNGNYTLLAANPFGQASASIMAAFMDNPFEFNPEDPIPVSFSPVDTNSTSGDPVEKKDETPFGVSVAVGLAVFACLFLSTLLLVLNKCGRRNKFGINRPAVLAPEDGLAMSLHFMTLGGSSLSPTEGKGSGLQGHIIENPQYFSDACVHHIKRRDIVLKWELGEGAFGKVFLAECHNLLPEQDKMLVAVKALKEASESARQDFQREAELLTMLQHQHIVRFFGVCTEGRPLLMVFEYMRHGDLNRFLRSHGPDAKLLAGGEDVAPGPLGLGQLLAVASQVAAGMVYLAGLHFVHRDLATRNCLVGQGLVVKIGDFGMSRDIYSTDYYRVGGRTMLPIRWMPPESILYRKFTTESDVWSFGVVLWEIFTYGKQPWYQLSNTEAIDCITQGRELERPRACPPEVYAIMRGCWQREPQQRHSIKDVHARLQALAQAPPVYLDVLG
As to the kind of experiment: DiscoverX PathHunter TrkA functional assay (NGF-stimulated U2OS cells). The test is classed as cell-based. Conditions: U2OS cells expressing human TrkA-PK, Shc1-EA and p75NTR; compound 1 h, then NGF at ~80% of maximal response for 3 h; luminescence.
Description: TrkA functional activity was measured using a DiscoverX PathHunter assay. In this assay, U2OS cells express the human TrkA receptor as a fusion with the weakly complementing fragment of B-galactosidase, which DiscoverX calls “Prolink (PK)”; additionally, Shc1 is fused with a larger fragment, which is called “Enzyme Acceptor (EA)”. Activation of the TrkA receptor, upon NGF addition, results in the kinase domain being phosphorylated, resulting in subsequent recruitment of Shc1-EA protein. That recruitment results in an active B-galactosidase enzyme that is detected by addition of a chemiluminescent substrate. The human p75^NTR protein was also expressed as a co-receptor for NGF.
All reagents were purchased from DiscoverX, except for the receptor agonists (NGF, BDNF, NT3) which were purchased from Peprotech. Cells were expanded and frozen into cryovials, and stored in the vapor phase of liquid nitrogen, and thawed immediately before use. Thawed cells were added to a 384-well plate at 7500 cells/well, and allowed to incubate overnight. Compound at various concentrations was added the following morning and allowed to incubate on cells for 1 h. Then, NGF was added at a concentration sufficient to elicit ˜80% of a maximal response and allowed to incubate for 3 h at ambient temperature. DiscoverX PathHunter detection reagent was then added and the plate was further incubated for 1 h in the dark. The plate was then read via luminescence on the Perkin Elmer Envision.
Regarding `Cc1csc(-c2ccn3c(NC(=O)c4ccc(C(F)(F)F)c(-c5ccn(C)n5)c4)c(-c4ccccc4)nc3c2)n1` [Compound 87, 3-(1-methyl-1H-pyrazol-3-yl)-N-[7-(4-methyl-1,3-thiazol-2-yl)-2-phenylimidazo[1,2-a]pyridin-3-yl]-4-(trifluoromethyl) benzamide], it took 0.68 nM to reach half-maximal inhibition (IC50). Turning to `CC(O)c1ccn2c(NC(=O)c3cc(-c4ccn(C)n4)c(C(F)(F)F)cc3F)c(-c3ccccc3)nc2c1` (single isomer, unassigned) [Compound 55, (R or S)-2-fluoro-N-[7-(1-hydroxyethyl)-2-phenylimidazo[1,2-a]pyridin-3-yl]-5-(1-methyl-1H-pyrazol-3-yl)-4-(trifluoromethyl) benzamide], the midpoint of inhibition, the IC50, lay at 0.37 nM. The result for `Cc1cc(C(F)(F)F)c(-c2ccn(C)n2)cc1C(=O)Nc1c(-c2ccccc2)nc2cc(C(C)(C)O)ccn12` [Compound 75, N-[7-(1-hydroxy-1-methylethyl)-2-phenylimidazo[1,2-a]pyridin-3-yl]-2-methyl-5-(1-methyl-1H-pyrazol-3-yl)-4-(trifluoromethyl) benzamide] reads 4.5 nM; that for `O=C(Nc1c(-c2ccccc2)nc2ccccn12)c1cc(-c2ncccn2)c(C(F)(F)F)cc1F` [Compound 105, 2-fluoro-N-(2-phenylimidazo[1,2-a]pyridin-3-yl)-5-pyrimidin-2-yl-4-(trifluoromethyl) benzamide], 1.4 nM; that for `Cc1coc(-c2cc(C(=O)Nc3c(-c4ccccc4)nc4cc(C(C)(C)O)ccn34)ccc2C(F)(F)F)n1` [Compound 46, N-[7-(1-hydroxy-1-methylethyl)-2-phenylimidazo[1,2-a]pyridin-3-yl]-3-(4-methyl-1,3-oxazol-2-yl)-4-(trifluoromethyl) benzamide], 0.44 nM. In the case of `Cc1coc(-c2cc(C(=O)Nc3c(-c4ccccc4)nc4cc(C(C)O)ccn34)ccc2C(F)(F)F)n1` (single isomer, unassigned) [Compound 61, (R or S)-N-[7-(1-hydroxyethyl)-2-phenylimidazo[1,2-a]pyridin-3-yl]-3-(4-methyl-1,3-oxazol-2-yl)-4-(trifluoromethyl) benzamide], it took 2.4 nM to reach half-maximal inhibition (IC50).

`CNC(=O)NCc1ccn2c(NC(=O)c3ccc(C(F)(F)F)c(-c4ccn(C)n4)c3)c(-c3ccccc3)nc2c1` [Compound 81, N-(7-{[(methylcarbamoyl)amino]methyl}-2-phenylimidazo[1,2-a]pyridin-3-yl)-3-(1-methyl-1H-pyrazol-3-yl)-4-(trifluoromethyl) benzamide] came in with an IC50 of 15 nM. Molecule `O=C(Nc1c(-c2ccccc2)nc2ccccn12)c1cc(-c2ncccn2)c(Cl)cc1F` [Compound 30, 4-chloro-2-fluoro-N-(2-phenylimidazo[1,2-a]pyridin-3-yl)-5-pyrimidin-2-ylbenzamide] registered an IC50 of 40 nM. On to `Cc1coc(-c2cc(C(=O)Nc3c(-c4ccccc4)nc4cc(C(C)O)ccn34)ccc2C(F)(F)F)n1` (single isomer, unassigned) [Compound 62, (R or S)-N-[7-(1-hydroxyethyl)-2-phenylimidazo[1,2-a]pyridin-3-yl]-3-(4-methyl-1,3-oxazol-2-yl)-4-(trifluoromethyl) benzamide], for which 1.5 nM corresponded to half-maximal inhibition (IC50). As for `Cn1ccc(-c2cc(C(=O)Nc3c(-c4ccccc4)[nH]c4ccc(C(=O)O)cc34)c(F)cc2C(F)(F)F)n1` [Compound 110, 3-({[2-fluoro-5-(1-methyl-1H-pyrazol-3-yl)-4-(trifluoromethyl)phenyl]carbonyl}amino)-2-phenyl-1H-indole-5-carboxylic acid], the IC50 is 3.6 nM. In turn, `Cn1ccc(-c2cc(C(=O)Nc3c(-c4ccccc4)nc4ccc(C(O)CO)cn34)ccc2C(F)(F)F)n1` (single isomer, unassigned) [Compound 52, (R or S)-N-[6-(1,2-dihydroxyethyl)-2-phenylimidazo[1,2-a]pyridin-3-yl]-3-(1-methyl-1H-pyrazol-3-yl)-4-(trifluoromethyl) benzamide] had an IC50 of 4.9 nM.

`Cn1ccc(-c2cc(C(=O)Nc3c(-c4ccccc4)[nH]c4ccccc34)c(F)cc2C(F)(F)F)n1` [Compound 72, 2-fluoro-5-(1-methyl-1H-pyrazol-3-yl)-N-(2-phenyl-1H-indol-3-yl)-4-(trifluoromethyl) benzamide] came in with an IC50 of 4.1 nM. `O=C(Nc1c(-c2ccccc2)nc2ccccn12)c1ccc(C(F)(F)F)c(-c2ccn(C(F)F)n2)c1` [Compound 11, 3-[1-(difluoromethyl)-1H-pyrazol-3-yl]-N-(2-phenylimidazo[1,2-a]pyridin-3-yl)-4-(trifluoromethyl) benzamide] came in with an IC50 of 3.2 nM. The result for `O=C(Nc1c(-c2ccccc2)nc2c(F)cccn12)c1ccc(C(F)(F)F)c(-c2cc[nH]n2)c1` [Compound 18, N-(8-fluoro-2-phenylimidazo[1,2-a]pyridin-3-yl)-3-(1H-pyrazol-3-yl)-4-(trifluoromethyl) benzamide] reads 11 nM; that for `Cn1ccc(-c2cc(C(=O)Nc3c(-c4ccccc4)nc4ccccn34)c(C#N)cc2C(F)(F)F)n1` [Compound 33, 2-cyano-5-(1-methyl-1H-pyrazol-3-yl)-N-(2-phenylimidazo[1,2-a]pyridin-3-yl)-4-(trifluoromethyl) benzamide], 532 nM.

Molecule `O=C(Nc1c(-c2ccccc2)nn2ccccc12)c1cc(-c2ncccn2)c(C(F)(F)F)cc1F` [Compound 85, 2-fluoro-N-(2-phenylpyrazolo[1,5-a]pyridin-3-yl)-5-pyrimidin-2-yl-4-(trifluoromethyl) benzamide] registered an IC50 of 5 nM. `CC(O)c1ccn2c(NC(=O)c3cc(-c4cc[nH]n4)c(C(F)(F)F)cc3F)c(-c3ccccc3)nc2c1` (single isomer, unassigned) [Compound 74, (R or S)-2-fluoro-N-[7-(1-hydroxyethyl)-2-phenylimidazo[1,2-a]pyridin-3-yl]-5-(1H-pyrazol-3-yl)-4-(trifluoromethyl) benzamide] gave an IC50 of 1.8 nM. With `Cn1ccc(-c2cc(C(=O)Nc3c(-c4ccccc4)nc4cc(C(C)(C)O)ccn34)c(F)cc2C(F)(F)F)n1` [Compound 50, 2-fluoro-N-[7-(1-hydroxy-1-methylethyl)-2-phenylimidazo[1,2-a]pyridin-3-yl]-5-(1-methyl-1H-pyrazol-3-yl)-4-(trifluoromethyl) benzamide], it took 0.45 nM to reach half-maximal inhibition (IC50).

`CC(O)c1ccc2[nH]c(-c3ccccc3)c(NC(=O)c3cc(-c4ncccn4)c(C(F)(F)F)cc3F)c2c1` (single isomer, unassigned) [Compound 95, (R or S)-2-fluoro-N-[5-(1-hydroxyethyl)-2-phenyl-1H-indol-3-yl]-5-pyrimidin-2-yl-4-(trifluoromethyl) benzamide] returned an IC50 of 4.9 nM.

Molecule `Cn1ccc(-c2cc(C(=O)Nc3c(-c4ccncc4)nc4ccccn34)c(Cl)cc2C(F)(F)F)n1` [Compound 23, 2-chloro-5-(1-methyl-1H-pyrazol-3-yl)-N-(2-pyridin-4-ylimidazo[1,2-a]pyridin-3-yl)-4-(trifluoromethyl) benzamide] gave an IC50 of 2 nM. `Cn1ccc(-c2cc(C(=O)Nc3c(-c4ccccc4)nc4cc(CO)ccn34)ccc2C(F)(F)F)n1` [Compound 26, N-[7-(hydroxymethyl)-2-phenylimidazo[1,2-a]pyridin-3-yl]-3-(1-methyl-1H-pyrazol-3-yl)-4-(trifluoromethyl) benzamide]: the IC50 came out at 1.4 nM. As to `Cc1ccn(-c2cc(C(=O)Nc3c(-c4ccccc4)nc4cc(C(C)(C)O)ccn34)ccc2C(F)(F)F)n1` [Compound 60, N-[7-(1-hydroxy-1-methylethyl)-2-phenylimidazo[1,2-a]pyridin-3-yl]-3-(3-methyl-1H-pyrazol-1-yl)-4-(trifluoromethyl) benzamide], the IC50 worked out at 14 nM.

In turn, `Cn1ccc(-c2cc(C(=O)Nc3c(-c4ccccc4)nc4cc(C(C)(C)O)ccn34)c(Cl)cc2C(F)(F)F)n1` [Compound 70, 2-chloro-N-[7-(1-hydroxy-1-methylethyl)-2-phenylimidazo[1,2-a]pyridin-3-yl]-5-(1-methyl-1H-pyrazol-3-yl)-4-(trifluoromethyl) benzamide] yielded an IC50 of 1.2 nM. On to `C[C@@H](O)c1ccn2c(NC(=O)c3cc(-c4ccn(C)n4)c(C(F)(F)CF)cc3F)c(-c3ccccc3)nc2c1` [Compound 115, 2-fluoro-N-{7-[(1R)-1-hydroxyethyl]-2-phenylimidazo[1,2-a]pyridin-3-yl}-5-(1-methyl-1H-pyrazol-3-yl)-4-(1,1,2-trifluoroethyl)benzamide], for which the IC50 was 3.7 nM. `CC(c1ccn2c(NC(=O)c3ccc(C(F)(F)F)c(-c4ccn(C)n4)c3)c(-c3ccccc3)nc2c1)N(C)C` (single isomer, unassigned) [Compound 56, (R or S)-N-{7-[1-(dimethylamino)ethyl]-2-phenylimidazo[1,2-a]pyridin-3-yl}-3-(1-methyl-1H-pyrazol-3-yl)-4-(trifluoromethyl) benzamide] showed an IC50 of 1 nM. With `CC(c1ccn2c(NC(=O)c3cc(-c4ccn(C)n4)c(C(F)(F)F)cc3F)c(-c3ccccc3)nc2c1)N(C)C` (single isomer, unassigned) [Compound 51, (R or S)-N-{7-[1-(dimethylamino)ethyl]-2-phenylimidazo[1,2-a]pyridin-3-yl}-2-fluoro-5-(1-methyl-1H-pyrazol-3-yl)-4-(trifluoromethyl) benzamide], the midpoint of inhibition, the IC50, lay at 3.5 nM.

In turn, `Cn1ccc(-c2cc(C(=O)Nc3c(-c4ccccc4)nc4cc(CNS(C)(=O)=O)ccn34)ccc2C(F)(F)F)n1` [Compound 84, 3-(1-methyl-1H-pyrazol-3-yl)-N-(7-{[(methylsulfonyl)amino]methyl}-2-phenylimidazo[1,2-a]pyridin-3-yl)-4-(trifluoromethyl) benzamide] gave an IC50 of 3.1 nM. The value for `Cc1cnn(-c2nc3ccccn3c2NC(=O)c2ccc(C(F)(F)F)c(-c3ccn(C)n3)c2)c1` [Compound 13, 3-(1-methyl-1H-pyrazol-3-yl)-N-[2-(4-methyl-1H-pyrazol-1-yl)imidazo[1,2-a]pyridin-3-yl]-4-(trifluoromethyl) benzamide] was 17 nM.

Usually IC50 stands for the concentration needed to halve the response being measured. A low value points to greater potency in that assay.
